The values below come from publication PMC3335078, “Length and Amino Acid Sequence of Peptides Substituted for the 5-HT3A Receptor M3M4 Loop May Affect Channel Expression and Desensitization” (PLoS ONE, 2012).

Experiment [1] concerns the target T1, 5-HT3A-A7 (M3M4 loop replaced by seven alanines) (Mus musculus, UniProt P23979).
T1 sequence (P23979 with tags, fused parts or gaps isoform P23979-2 limits assumed): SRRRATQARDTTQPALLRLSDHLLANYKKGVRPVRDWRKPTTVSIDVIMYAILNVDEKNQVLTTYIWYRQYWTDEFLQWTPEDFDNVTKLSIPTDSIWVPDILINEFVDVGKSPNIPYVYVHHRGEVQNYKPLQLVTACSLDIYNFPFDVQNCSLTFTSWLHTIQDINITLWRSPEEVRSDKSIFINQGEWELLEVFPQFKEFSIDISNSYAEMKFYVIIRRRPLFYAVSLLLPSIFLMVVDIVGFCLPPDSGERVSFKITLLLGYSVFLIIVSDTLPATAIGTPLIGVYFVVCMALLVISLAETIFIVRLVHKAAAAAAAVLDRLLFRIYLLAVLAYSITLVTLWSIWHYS
An excerpt: (§1) The mouse 5-HT3A cDNA with an N-terminal V5 epitope tag was cloned into the pXOON vector as previously described, and is referred to in this paper as “wild-type” (WT). The starting construct for all of the M3M4 loop replacement constructs used in this work was the 5-HT3A-ΔM3M4 construct formed by splicing the cytoplasmic end of M3 (M3-LVHK/QDLQRP…) to the cytoplasmic end of M4 (…WLRVGY/VLDRLL-M4). The splice was made at the site of the “/” to yield the sequence M3-LVHK/VLDRLL-M4 [34]. This removed 115 residues predicted to form the M3M4 loop.
(§2) The construction of the 5-HT3A-glvM3M4 chimera with the 5-HT3A M3M4 loop replaced by the GLIC heptapeptide M3M4 loop (SQPARAA) was described previously. Point mutations, alanine and Gly-Ser-Ala insertions into the 5-HT3A-ΔM3M4 construct were generated with the Quikchange site directed mutagenesis procedure (Stratagene, La Jolla, CA). The entire coding region of all mutant constructs was verified by DNA sequencing (Albert Einstein College of Medicine DNA Sequencing Facility). The pXOON plasmid was linearized using NheI and capped mRNA prepared with T7 RNA polymerase (mMessage mMachine, Ambion, Austin, TX).
Use of Xenopus laevis in this study was carried out in strict accordance with the recommendations in the Guide for the Care and Use of Laboratory Animals of the National Institutes of Health. The protocol was approved by the Albert Einstein College of Medicine Animal Care and Use Committee (Protocol Number: 20081201). All surgery was performed under tricaine anesthesia, and all efforts were made to minimize suffering. Oocyctes were harvested from Xenopus (Nasco Science, Fort Atkinson, WI) anesthetized with 0.15% tricaine. Oocyctes were defolliculated by incubation in 2 mg ml^−1 Type 1A collagenase (Sigma-Aldrich, St. Louis, MO) in OR2 (85 mM NaCl, 2 mM KCl, 1 mM MgCl2, and 5 mM HEPES; pH adjusted to 7.5 with NaOH) for a 60 or 75 min. Oocytes were washed in OR2 and stored at 16°C in SOS medium: 100 mM NaCl, 2 mM KCl, 1 mM MgCl2, 1.8 mM CaCl2 5 mM HEPES, pH 7.5 with 100 IU ml^−1 penicillin, 100 µg ml^−1 streptomycin, and 250 ng ml^−1 amphotericin B (Invitrogen, Carlsbad, CA) and 5% horse serum (Sigma-Aldrich). 24 hrs following isolation, oocyctes were injected with 23 nl (2.3 ng) of mRNA and were kept in SOS media for 2–5 d at 16°C.
Currents were recorded under two-electrode voltage clamp from oocytes 2–5 d post-injection as described previously. […] The perfusion chamber volume was 200 µl. A 3 M KCl/agar bridge connected the ground electrode to the bath. The holding potential was maintained at −60 mV. […] Salts were purchased from Fisher Scientific (Hampton, NH) or Sigma-Aldrich.
Desensitization rates were determined by fitting a single exponential decay function to the current data with Prism 4 software (GraphPad Software). Significant differences compared with wild-type were determined by a one-way ANOVA (p<0.05) using Dunnett's multiple comparison post-hoc test (p<0.05). […]

Experiment [2] concerns the target T2, 5-HT3A-A4 (M3M4 loop replaced by four alanines) (Mus musculus, UniProt P23979).
T2 construct: expressed in transfected cells; host or cells: Xenopus laevis oocytes injected with mRNA
T2 sequence (P23979 with tags, fused parts or gaps isoform P23979-2 limits assumed): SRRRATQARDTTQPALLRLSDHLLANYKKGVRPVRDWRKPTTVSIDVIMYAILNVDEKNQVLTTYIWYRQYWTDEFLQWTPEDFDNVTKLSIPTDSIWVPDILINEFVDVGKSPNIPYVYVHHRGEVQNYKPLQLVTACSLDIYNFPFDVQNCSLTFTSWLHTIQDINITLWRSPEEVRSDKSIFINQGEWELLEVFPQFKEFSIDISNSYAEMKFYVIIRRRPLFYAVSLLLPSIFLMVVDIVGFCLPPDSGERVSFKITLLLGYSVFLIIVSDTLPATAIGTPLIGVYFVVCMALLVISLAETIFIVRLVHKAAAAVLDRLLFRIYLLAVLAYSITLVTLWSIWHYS
Briefly: Two-electrode voltage clamp, oocytes expressing 5-HT3A-A4. The experiment is classed as cell-based.
Text: as §1, §2
Use of Xenopus laevis in this study was carried out in strict accordance with the recommendations in the Guide for the Care and Use of Laboratory Animals of the National Institutes of Health. The protocol was approved by the Albert Einstein College of Medicine Animal Care and Use Committee (Protocol Number: 20081201). All surgery was performed under tricaine anesthesia, and all efforts were made to minimize suffering. Oocyctes were harvested from Xenopus (Nasco Science, Fort Atkinson, WI) anesthetized with 0.15% tricaine. […]
(§3) Currents were recorded under two-electrode voltage clamp from oocytes 2–5 d post-injection as described previously. […]
(§4) Desensitization rates were determined by fitting a single exponential decay function to the current data with Prism 4 software (GraphPad Software). Significant differences compared with wild-type were determined by a one-way ANOVA (p<0.05) using Dunnett's multiple comparison post-hoc test (p<0.05). […]
(In two-electrode clamp one electrode senses voltage and the other passes current.)

For experiment [3], the target named is T3, 5-HT3A ESQPA-M3M4 loop construct (Mus musculus, UniProt P23979).
T3 construct: expressed in transfected cells; host or cells: Xenopus laevis oocytes injected with mRNA
T3 sequence (P23979 with tags, fused parts or gaps isoform P23979-2 limits assumed): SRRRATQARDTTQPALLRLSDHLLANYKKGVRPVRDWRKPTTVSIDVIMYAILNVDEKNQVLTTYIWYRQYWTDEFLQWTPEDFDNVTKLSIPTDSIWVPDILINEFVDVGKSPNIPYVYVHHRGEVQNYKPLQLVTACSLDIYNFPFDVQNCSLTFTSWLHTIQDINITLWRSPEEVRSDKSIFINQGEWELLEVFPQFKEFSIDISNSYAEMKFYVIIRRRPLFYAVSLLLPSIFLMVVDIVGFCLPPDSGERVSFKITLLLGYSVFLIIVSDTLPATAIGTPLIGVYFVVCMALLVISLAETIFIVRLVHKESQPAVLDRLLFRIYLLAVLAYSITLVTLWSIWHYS
Briefly: Two-electrode voltage clamp, oocytes expressing ESQPA-M3M4 loop construct. Conditions: up to 50 µM 5-HT, Xenopus oocytes. The experiment is classed as cell-based.
Text: as §1
(§5) The construction of the 5-HT3A-glvM3M4 chimera with the 5-HT3A M3M4 loop replaced by the GLIC heptapeptide M3M4 loop (SQPARAA) was described previously. Point mutations, alanine and Gly-Ser-Ala insertions into the 5-HT3A-ΔM3M4 construct were generated with the Quikchange site directed mutagenesis procedure (Stratagene, La Jolla, CA). […]
as §3, §4

Experiment [4] concerns the target T4, 5-HT3A M3M4 loop SQPAEAA construct (Mus musculus, UniProt P23979).
T4 construct: expressed in transfected cells; host or cells: Xenopus laevis oocytes injected with mRNA
Description: Two-electrode voltage clamp, oocytes expressing SQPAEAA loop construct. In kind it is cell-based. Conditions: 10 µM 5-HT, Xenopus oocytes.
Text: as §1, §5, §3, §4

The target of experiment [5] is T5, 5-HT3A M3M4 loop AAPARAA construct (Mus musculus, UniProt P23979).
T5 construct: expressed in transfected cells; host or cells: Xenopus laevis oocytes injected with mRNA
T5 sequence (P23979 with tags, fused parts or gaps): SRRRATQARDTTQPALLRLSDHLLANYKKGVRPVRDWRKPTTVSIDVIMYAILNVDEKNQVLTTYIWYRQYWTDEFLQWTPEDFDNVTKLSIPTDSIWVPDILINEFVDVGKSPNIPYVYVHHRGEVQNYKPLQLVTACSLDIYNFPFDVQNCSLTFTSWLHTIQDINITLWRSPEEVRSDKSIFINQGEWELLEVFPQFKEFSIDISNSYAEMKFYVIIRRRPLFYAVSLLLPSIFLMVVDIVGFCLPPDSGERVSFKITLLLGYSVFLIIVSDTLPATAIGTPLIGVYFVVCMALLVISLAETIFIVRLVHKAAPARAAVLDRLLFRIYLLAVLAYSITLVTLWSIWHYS
Description: Two-electrode voltage clamp, oocytes expressing AAPARAA loop construct. The experiment is classed as cell-based. Conditions: 10 µM 5-HT, Xenopus oocytes.
Text: as §1, §5, §3, §4

The next experiment deals with T6, 5-HT3A-A7 (Mus musculus, UniProt P23979).
T6 construct: expressed in transfected cells; host or cells: Xenopus laevis oocytes injected with mRNA
Description: Radioactive 5-HT binding to oocytes expressing 5-HT3A-A7. Conditions: 150 nM [3H]5-HT + 10 µM 5-HT, 5 min, 45 s cold wash. How it is done:
(§6) Assays were terminated by five washes with ice cold CFFR buffer, followed by solubilization of the oocytes individually with 200 µl 5% SDS. Total wash time was 45 s. […] All data points represent the average of at least fifteen individual oocytes derived from three separate oocyte isolations.
(§7) To determine the extent of non-specific binding, all binding experiments were performed in parallel with diethylpyrocarbonate-(DEPC)-treated-water injected oocytes or uninjected oocytes.

For another experiment, the target named is T7, 5-HT3A-A5 (Mus musculus, UniProt P23979).
T7 construct: expressed in transfected cells; host or cells: Xenopus laevis oocytes injected with mRNA
T7 sequence (P23979 with tags, fused parts or gaps isoform P23979-2 limits assumed): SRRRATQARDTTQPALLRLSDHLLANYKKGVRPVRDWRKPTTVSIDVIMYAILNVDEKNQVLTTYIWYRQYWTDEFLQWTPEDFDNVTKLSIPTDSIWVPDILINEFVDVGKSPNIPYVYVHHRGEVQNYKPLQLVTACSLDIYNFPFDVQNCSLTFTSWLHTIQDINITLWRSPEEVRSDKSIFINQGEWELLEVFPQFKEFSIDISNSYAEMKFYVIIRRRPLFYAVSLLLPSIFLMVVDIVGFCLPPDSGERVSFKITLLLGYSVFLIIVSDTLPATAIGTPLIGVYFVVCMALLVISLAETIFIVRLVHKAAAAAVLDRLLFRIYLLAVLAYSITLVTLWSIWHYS
Description: Radioactive 5-HT binding to oocytes expressing 5-HT3A-A5. Conditions: 150 nM [3H]5-HT + 10 µM 5-HT, 5 min, 45 s cold wash. How it is done:
as §6, §7

For a further experiment, the target named is T8, 5-HT3A-A2 (Mus musculus, UniProt P23979, DELINS338-452AA).
T8 construct: expressed in transfected cells; host or cells: Xenopus laevis oocytes injected with mRNA
T8 sequence (P23979 with tags, fused parts or gaps isoform P23979-2 DELINS338-452AA limits assumed): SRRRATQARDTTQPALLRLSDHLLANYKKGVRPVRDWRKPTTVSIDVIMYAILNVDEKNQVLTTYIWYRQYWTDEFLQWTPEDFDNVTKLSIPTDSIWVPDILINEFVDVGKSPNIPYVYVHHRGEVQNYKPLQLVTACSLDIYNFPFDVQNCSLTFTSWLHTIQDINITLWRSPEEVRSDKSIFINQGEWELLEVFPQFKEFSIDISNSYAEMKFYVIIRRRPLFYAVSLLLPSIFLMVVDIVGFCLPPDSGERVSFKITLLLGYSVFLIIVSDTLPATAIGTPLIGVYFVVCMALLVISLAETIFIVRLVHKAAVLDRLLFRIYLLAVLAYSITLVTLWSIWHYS
Description: Radioactive 5-HT binding to oocytes expressing 5-HT3A-A2. Conditions: 150 nM [3H]5-HT + 10 µM 5-HT, 5 min, 45 s cold wash. The procedure:
as §6, §7

T4 sequence (P23979 with tags, fused parts or gaps): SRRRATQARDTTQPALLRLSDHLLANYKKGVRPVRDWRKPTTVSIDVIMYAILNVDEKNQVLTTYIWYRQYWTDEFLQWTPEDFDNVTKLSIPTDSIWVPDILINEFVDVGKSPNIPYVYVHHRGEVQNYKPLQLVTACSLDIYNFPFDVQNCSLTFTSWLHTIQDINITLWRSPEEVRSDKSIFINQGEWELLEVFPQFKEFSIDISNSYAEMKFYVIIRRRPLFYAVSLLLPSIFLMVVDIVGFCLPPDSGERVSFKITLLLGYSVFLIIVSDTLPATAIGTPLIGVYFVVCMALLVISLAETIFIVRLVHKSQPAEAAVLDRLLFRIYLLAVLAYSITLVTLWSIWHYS

Consider `NCCc1c[nH]c2ccc(O)cc12` [5-HT, 5-hydroxytryptamine], for which, in experiment [1], the “nH (Hill coefficient)” value is listed as 3.7±0.8. Further, the entries for the “10–90% Activation rise time” value in experiment [1] (10 µM 5-HT) and in experiment [2] (10 µM 5-HT) were 881 ± 110 ms and 487 ± 25 ms, respectively. In addition, the results for the “Desensitization time constant τ” value in experiment [1] (prolonged 10 µM 5-HT) and in experiment [2] (prolonged 10 µM 5-HT) were 62 ± 4 s and 56 ± 9 s, respectively. Also, in experiment [2] (10 µM 5-HT, Xenopus oocytes, -60 mV), the “Imax (peak current)” value turned out to be 7100±400 nA. For the same compound, the figures for the 5-HT induced current result in experiment [3] and in experiment [4] were “no currents were observed” and “large currents”, respectively. For the same compound, the “Channel function (5-HT induced current)” value in experiment [5] is “non-functional channels”. Moreover, the results for the “Radiolabeled 5-HT bound per oocyte” value on 5-HT3A-A7, at 5-HT3A-A5 and on 5-HT3A-A2 were 0.40±0.08 pmol per oocyte, 0.40±0.03 pmol per oocyte and 0.33±0.06 pmol per oocyte, respectively.
